Test results taken from paper PMC8686256, “DZNep promotes mouse bone defect healing via enhancing both osteogenesis and osteoclastogenesis” (Stem Cell Research & Therapy, 2021).

Tests used:
Format in all cases: cell-based, mouse
BMMs = test: RANKL-induced osteoclast differentiation, TRAP staining
Description: To evaluate the role of DZNep on osteoclastogenesis, BMMs were seeded into, in triplicate, a 96-well plate at the density of 8 × 10^3 cells/well with complete α-MEM for one day. Afterward, the culture medium was replaced by the complete α-MEM containing different concentrations of DZNep (control, 3.125, 6.25, 12.5, and 25 nM) and RANKL (50 ng/ml) to stimulate osteoclast differentiation. Cells untreated with DZNep were included as the control group. Moreover, the BMMs treated with or without DZNep for various days were also analyzed. For EZH2 gene knockdown studies, the cells were transfected with virus constructed of different EZH2 short hairpin RNA (shRNA) and negative control shRNA by mixed with polybrene (final concentration of 10ug/ml) for 48 h. The transfection mixture was then replaced by complete α-MEM added with puromycin for 24 h, and BMMs were then seeded into a 96-well plate at the density of 1 × 10^4 cells/well with complete α-MEM. The culture medium was then replaced every 2 days until the matured osteoclasts could be observed in the plate. For Foxc1 inhibition experiment, the cells were separately transfected with negative control siRNA, negative control siRNA with DZNep, and Foxc1 small interfering RNA (siRNA) with DZNep and by mixed with transfection reagent and osteoclast culture medium. The transfection mixture was then replaced every 2 days until the matured osteoclasts could be observed in the plate. The plate was then washed by PBS 1 times and fixed with 4% paraformaldehyde for 15 min. TRAP staining was performed immediately without light at 37 °C for 30 min. An optical microscope (Olympus, Tokyo, Japan) was used to image the photographs, and the TRAP-positive cells with more than three nuclei were considered osteoclasts and were quantified the area and number using the ImageJ software (NIH, Bethesda, MD, USA).

[1] = tested on: BMMs and calvarial OB co-culture; test: Osteoblasts and osteoclasts co-cultivation, ALP staining; settings: 7 days
Description: For the osteoblasts and osteoclasts co-culture system, calvarial OB isolated from day 1–3 pups were cultured for 24 h. Then the calvarial OB with complete α-MEM (α-MEM supplemented with 10% FBS, 1% penicillin/streptomycin) were seeded into 24-well plates at a density of 2 × 10^4 cells/well. After 3 days of cultivation, the medium was replaced by the complete α-MEM containing […] ascorbic acid and 5 mM β-glycerophosphate. On the same day, bone marrow monocytes were isolated from bone marrow and cultured in 10-cm dish. Another 3 days later, BMMs were seeded at a density of 4 × 10^4 cells/well into the 24-well plate containing the calvarial OB, and the α-MEM supplemented with 15% FBS, 1% penicillin/streptomycin, 1, 25-dihydroxy vitamin D3 (10 nM; CSN), and PGE2 (1 μM; CSN). After changed every 3 days for 2 times of the culture medium, the cells were then fixed and stained to observe the percent of the positive ALP staining area using a kit according to the manufacturer’s instructions (Beyotime, Shanghai, China). The percent of area was then quantified using ImageJ.

EZH2 and H3K27me3 = test: Western blotting of EZH2, H3K27me3 and GSK-3β in BMSC
[2] = tested on: Wnt signaling pathway-related and osteoblast-specified genes in BMSC; test: qPCR of Wnt and osteoblast genes in BMSC
Description: BMMs were cultured in 6-well plates at the density of 2 × 10^5 cells/well in α-MEM supplemented with M-CSF (30 ng/ml), RANKL (50 ng/ml). The cells were then treated with or without 25 nM DZNep for 0, 1, 3, 5 days, or with various concentrations of DZNEP (0, 6.25, 25 nM) for 5 days, or with negative control siRNA, negative control siRNA with DZNep, and Foxc1 small interfering RNA (siRNA) with DZNep for 5 days. Once the culture completed, the Axygen RNA Miniprep Kit (Axygen, Union City, CA, USA) was used to extract the total RNA. BMSC were seeded in a 6-well plate at a number of 4 × 10^5 cells/well and treated with 0, 25, 50, 100 nM of DZNep combined with osteoblast-cultured medium for 24 h, or with or without 100 nM DZNep combined with osteoblast-cultured medium for 0 and 7 days, or with negative control siRNA, negative control siRNA with DZNep, and Wnt4 small interfering RNA (siRNA) with DZNep combined with osteoblast-cultured medium for 7 days. Once the culture completed, the Axygen RNA Miniprep Kit (Axygen, Union City, CA, USA) was used to extract the total RNA. After reverse transcription to obtain cDNA from the RNA template by using the Prime Script RT reagent Kit was finished. The real-time PCR assay was subsequently performed by using the SYBR® Premix Ex Taq™ II on an ABI 7500 Sequencing Detection System (Applied Biosystems, Foster City, CA). Specifically, total volume of 10 μl liquid consisted by 5 μl of SYBR® Premix Ex Taq™ II, 1 μl of diluted cDNA, 0.4 μl of mixed forward and reverse primer, and 3.6 μl of ddH2O was added into each hole of 384 PCR plate. Conditions of the 40 cycles were: 95 °C for 5 s and 60 °C for 30 s. The melting curves and reverse transcription PCR (RT-PCR) were the methods to detect the specificity of amplification product. Each target’s quantity, run in triplicate, was normalized to Actin Beta (Actb). […]

[3] = RANKL, M-CSF, DZNep ≤25 nM, 5 days, vs control

In the case of `Nc1nccc2c1ncn2C1C=C(CO)C(O)C1O` (stereo not drawn) [DZNep, 3-Deazaneplanocin], the “number of osteoclasts, treatment at specific time points” value (BMMs; 25 nM, day 3–5, vs control) is reported as “increased the number of osteoclasts at the middle stage”, the “number of mature osteoclast nuclei” value (BMMs; [3]) is reported as “increased in a dose-dependent manner significantly” and the “number of mature osteoclasts” value (BMMs; [3]) is reported as “increased the number of mature osteoclasts in a DZNep dose-dependent manner”. The “osteogenesis in co-culture system (ALP)” value [1] was “still preserves the effect of promoting osteogenesis”, the “EZH2 and H3k27me3 expression in BMSC” value (EZH2 and H3K27me3; 0, 25, 50, 100 nM, 24 h, vs control) was “dose-dependent decreased” and the “phosphorylation level of GSK-3β” value (EZH2 and H3K27me3; BMSC) was “no significant change”. For the same molecule, the “expression of Wnt4, Wnt1, Wnt6, Wnt10a (qPCR)” value ([2]; 0, 25, 50, 100 nM, 24 h) was “increased in a concentration-dependent manner”, the “expression of Wnt genes after osteoblast-cultured medium for 7 days” value ([2]; 100 nM, 7 days) was “obviously upregulated” and the “expression of osteoblast-specified genes Runx2, Ocn, Opn, Col1a1” value ([2]; BMSC, 100 nM 0 and 7 days, 0-100 nM 24 h) was “enhanced in a time-dependent and dose-dependent manner”.
